Where two headings read alike, the source gives them in different places.
How the values were obtained:
E. coli RecBCD [1] = target: T1, E. coli RecBCD (Escherichia coli, UniProt P04993+P07648+P08394); assay: Purified RecBCD nuclease (ds exonuclease) assay; format: biochemical; details: for concentration range over which activity decreased from about 90% to about 10%: RecBCD nuclease; for IC50: purified enzyme
Description: Nuclease assays measured the formation of TCA-soluble radioactive material from phage T7 [^3H] DNA (2 μg/ml; 6 μM nucleotides) substrate in a 20 min incubation at 37° C. […] AddAB assays were in 50 mM Tris-HCl (pH 8.5), 10 mM MgCl2, polyvinylpyrrolidone (1 mg/ml), 1 mM DTT, and 50 μM ATP. […] Compounds were diluted in DMSO and added to enzyme in assay buffer on ice; final DMSO concentration was 5.0% in each assay. DNA substrate was added, and after <5 min the reactions were started by transferring the samples to 37° C. Reactions were stopped by addition of calf thymus DNA to 0.2 mg/ml and TCA to 5%. After 10 min on ice, the mixtures were centrifuged for 5 min at 16,100×g, and the soluble radioactive material determined in a scintillation counter.

E. coli RecBCD [2] = target: T1, E. coli RecBCD; assay: RecBCD helicase (DNA unwinding) and Chi cutting assay; format: biochemical; details: purified enzyme; approximate; read-out: Inhibition (approximate IC50, μM) Inhibition of RecBCD Chi cutting
Description: Helicase assays measured the formation of ss DNA from 5′ [^32P] pBR322 X^+^F (or X^o control) DNA (0.1 nM molecules) linearized by digestion with HindIII enzyme. […] Reactions were started by addition of ATP and were at 37° C. for 1 min (RecBCD) or 2 min (AddAB). […] Gels were dried under vacuum, and the products detected by autoradiography or analyzed with a Typhoon Trio PhosphorImager (GE Lifesciences) and ImageQuant TL software (Amersham).

RecBCD = RecBCD (Escherichia coli, UniProt P04993+P07648+P08394); assay: RecBCD (strain V66) HTS assay: E. coli recBCD+ growth with T4 gene 2 mutant phage
[3] = system: E. coli Hfr recombination; assay: E. coli Hfr recombination (RecBCD pathway, strain V66 x V1306); details: for activity at 200 µM: Escherichia coli, read-out: Relative recombinant frequency, E. coli Hfr recombination at 200 μM compound, 200 μM
Description: E. coli Hfr recombination, phage λ recombination, and Chi hotspot activity assays were conducted as described by Schultz, D. W.; Taylor, A. F.; Smith, G. R., J. Bacteriol.

H. pylori AddAB [4] = target: T2, H. pylori AddAB (Helicobacter pylori, UniProt O25052+O26077); assay: biochemical; format: biochemical; details: purified enzyme
T2 sequence (O25052 entry or part of it): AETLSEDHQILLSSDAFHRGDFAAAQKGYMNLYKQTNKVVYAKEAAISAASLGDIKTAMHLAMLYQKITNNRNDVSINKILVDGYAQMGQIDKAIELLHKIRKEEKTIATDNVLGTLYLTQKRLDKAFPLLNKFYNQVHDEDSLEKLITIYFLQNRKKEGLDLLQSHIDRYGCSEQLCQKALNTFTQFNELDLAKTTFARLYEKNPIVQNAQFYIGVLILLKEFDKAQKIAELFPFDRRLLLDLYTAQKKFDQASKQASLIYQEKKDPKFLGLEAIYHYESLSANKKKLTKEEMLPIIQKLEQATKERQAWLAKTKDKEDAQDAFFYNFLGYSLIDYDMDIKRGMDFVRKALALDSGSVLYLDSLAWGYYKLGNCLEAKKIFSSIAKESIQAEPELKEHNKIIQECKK
T2 sequence (O26077 entry or part of it): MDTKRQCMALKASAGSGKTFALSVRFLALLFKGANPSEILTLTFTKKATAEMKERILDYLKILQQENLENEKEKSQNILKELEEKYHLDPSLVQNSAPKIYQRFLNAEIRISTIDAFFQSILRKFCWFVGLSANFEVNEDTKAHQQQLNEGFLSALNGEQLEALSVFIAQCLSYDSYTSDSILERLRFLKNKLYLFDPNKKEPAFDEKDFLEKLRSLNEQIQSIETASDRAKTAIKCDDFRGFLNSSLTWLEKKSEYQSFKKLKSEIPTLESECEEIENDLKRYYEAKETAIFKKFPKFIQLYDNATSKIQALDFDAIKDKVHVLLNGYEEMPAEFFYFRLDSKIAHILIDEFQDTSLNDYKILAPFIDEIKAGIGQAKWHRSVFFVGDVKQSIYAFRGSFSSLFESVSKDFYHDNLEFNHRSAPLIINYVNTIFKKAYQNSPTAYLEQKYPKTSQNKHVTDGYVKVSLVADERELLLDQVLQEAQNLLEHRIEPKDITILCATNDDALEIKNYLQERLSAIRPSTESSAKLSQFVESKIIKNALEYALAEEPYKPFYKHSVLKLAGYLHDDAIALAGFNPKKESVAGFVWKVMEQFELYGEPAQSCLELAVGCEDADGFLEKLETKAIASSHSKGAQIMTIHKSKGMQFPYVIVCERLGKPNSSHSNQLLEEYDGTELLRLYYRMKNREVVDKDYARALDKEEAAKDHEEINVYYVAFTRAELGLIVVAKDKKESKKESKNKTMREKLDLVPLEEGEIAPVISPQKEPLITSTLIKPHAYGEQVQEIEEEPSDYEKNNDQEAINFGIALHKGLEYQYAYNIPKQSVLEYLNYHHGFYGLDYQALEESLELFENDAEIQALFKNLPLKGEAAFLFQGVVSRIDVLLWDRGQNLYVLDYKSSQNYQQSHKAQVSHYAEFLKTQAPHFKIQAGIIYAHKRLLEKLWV
Description: (§1) Nuclease assays measured the formation of TCA-soluble radioactive material from phage T7 [^3H] DNA (2 μg/ml; 6 μM nucleotides) substrate in a 20 min incubation at 37° C. (Eichler, D. C.; Lehman, I. R., J. Biol. Chem. 1977, 252, 499-503). AddAB assays were in 50 mM Tris-HCl (pH 8.5), 10 mM MgCl2, polyvinylpyrrolidone (1 mg/ml), 1 mM DTT, and 50 μM ATP. RecBCD assays used the same condition but with 25 μM ATP. Compounds were diluted in DMSO and added to enzyme in assay buffer on ice; final DMSO concentration was 5.0% in each assay. DNA substrate was added, and after <5 min the reactions were started by transferring the samples to 37° C. Reactions were stopped by addition of calf thymus DNA to 0.2 mg/ml and TCA to 5%. After 10 min on ice, the mixtures were centrifuged for 5 min at 16,100×g, and the soluble radioactive material determined in a scintillation counter.

H. pylori AddAB [5] = target: T2, H. pylori AddAB; assay: AddAB (strain V3065) phage assay: E. coli (paddAB) growth with T4 gene 2 mutant phage
M. smegmatis AddAB = M. smegmatis AddAB (Mycolicibacterium smegmatis, UniProt A0QTR9+A0QTS0); assay: Purified AddAB nuclease assay; format: biochemical; details: purified enzyme; read-out: Nuclease IC50, M. smeg AddAB
M. smegmatis RecBCD = M. smegmatis RecBCD (Mycolicibacterium smegmatis, UniProt A0QS28+A0QS29+A0QS30); assay: Purified RecBCD nuclease assay; format: biochemical; details: purified enzyme; read-out: Nuclease IC50, M. smeg RecBCD
Sequence of M. smegmatis RecBCD (A0QS29 whole entry): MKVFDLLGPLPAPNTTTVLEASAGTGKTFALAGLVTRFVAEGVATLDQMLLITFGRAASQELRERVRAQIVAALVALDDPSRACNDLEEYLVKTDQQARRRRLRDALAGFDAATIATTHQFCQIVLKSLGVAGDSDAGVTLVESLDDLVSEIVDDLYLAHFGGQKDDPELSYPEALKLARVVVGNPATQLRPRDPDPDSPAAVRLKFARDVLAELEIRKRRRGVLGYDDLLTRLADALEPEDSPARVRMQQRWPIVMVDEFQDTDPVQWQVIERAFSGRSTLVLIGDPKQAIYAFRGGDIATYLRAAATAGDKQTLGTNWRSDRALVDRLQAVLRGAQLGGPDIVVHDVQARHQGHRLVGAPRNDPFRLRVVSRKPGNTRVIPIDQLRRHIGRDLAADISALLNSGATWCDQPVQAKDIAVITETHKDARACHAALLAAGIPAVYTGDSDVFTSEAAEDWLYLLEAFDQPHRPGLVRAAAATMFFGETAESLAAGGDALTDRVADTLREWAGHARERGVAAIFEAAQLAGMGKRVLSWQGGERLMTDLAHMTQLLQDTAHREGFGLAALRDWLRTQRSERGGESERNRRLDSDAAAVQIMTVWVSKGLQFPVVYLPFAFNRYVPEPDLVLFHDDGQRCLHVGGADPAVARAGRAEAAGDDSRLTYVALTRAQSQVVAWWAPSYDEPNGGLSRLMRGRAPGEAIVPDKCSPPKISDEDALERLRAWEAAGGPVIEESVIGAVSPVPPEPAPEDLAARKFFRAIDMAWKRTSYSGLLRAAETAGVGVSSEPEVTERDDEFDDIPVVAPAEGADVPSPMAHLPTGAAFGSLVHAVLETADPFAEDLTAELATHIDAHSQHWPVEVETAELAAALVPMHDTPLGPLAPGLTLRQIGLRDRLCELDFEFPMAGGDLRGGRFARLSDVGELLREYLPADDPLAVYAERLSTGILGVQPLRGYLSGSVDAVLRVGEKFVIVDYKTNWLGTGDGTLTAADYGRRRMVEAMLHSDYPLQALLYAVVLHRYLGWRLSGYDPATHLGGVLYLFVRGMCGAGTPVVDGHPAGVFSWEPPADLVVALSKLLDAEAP
Sequence of M. smegmatis RecBCD (A0QS28 whole entry): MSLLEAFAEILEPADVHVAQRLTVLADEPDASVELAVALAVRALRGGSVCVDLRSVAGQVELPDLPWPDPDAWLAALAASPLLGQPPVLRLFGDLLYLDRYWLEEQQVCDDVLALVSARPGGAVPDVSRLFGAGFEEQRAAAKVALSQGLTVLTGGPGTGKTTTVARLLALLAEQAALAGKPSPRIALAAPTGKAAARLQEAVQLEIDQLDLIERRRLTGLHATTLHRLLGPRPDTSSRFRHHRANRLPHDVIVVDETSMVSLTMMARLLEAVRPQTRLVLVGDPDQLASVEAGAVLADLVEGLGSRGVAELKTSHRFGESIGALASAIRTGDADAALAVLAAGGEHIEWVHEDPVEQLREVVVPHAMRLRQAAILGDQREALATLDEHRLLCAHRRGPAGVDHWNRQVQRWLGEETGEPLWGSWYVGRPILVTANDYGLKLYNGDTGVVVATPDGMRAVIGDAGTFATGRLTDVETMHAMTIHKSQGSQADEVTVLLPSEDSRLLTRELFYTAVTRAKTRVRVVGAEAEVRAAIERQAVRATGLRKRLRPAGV
Sequence of M. smegmatis RecBCD (A0QS30 whole entry): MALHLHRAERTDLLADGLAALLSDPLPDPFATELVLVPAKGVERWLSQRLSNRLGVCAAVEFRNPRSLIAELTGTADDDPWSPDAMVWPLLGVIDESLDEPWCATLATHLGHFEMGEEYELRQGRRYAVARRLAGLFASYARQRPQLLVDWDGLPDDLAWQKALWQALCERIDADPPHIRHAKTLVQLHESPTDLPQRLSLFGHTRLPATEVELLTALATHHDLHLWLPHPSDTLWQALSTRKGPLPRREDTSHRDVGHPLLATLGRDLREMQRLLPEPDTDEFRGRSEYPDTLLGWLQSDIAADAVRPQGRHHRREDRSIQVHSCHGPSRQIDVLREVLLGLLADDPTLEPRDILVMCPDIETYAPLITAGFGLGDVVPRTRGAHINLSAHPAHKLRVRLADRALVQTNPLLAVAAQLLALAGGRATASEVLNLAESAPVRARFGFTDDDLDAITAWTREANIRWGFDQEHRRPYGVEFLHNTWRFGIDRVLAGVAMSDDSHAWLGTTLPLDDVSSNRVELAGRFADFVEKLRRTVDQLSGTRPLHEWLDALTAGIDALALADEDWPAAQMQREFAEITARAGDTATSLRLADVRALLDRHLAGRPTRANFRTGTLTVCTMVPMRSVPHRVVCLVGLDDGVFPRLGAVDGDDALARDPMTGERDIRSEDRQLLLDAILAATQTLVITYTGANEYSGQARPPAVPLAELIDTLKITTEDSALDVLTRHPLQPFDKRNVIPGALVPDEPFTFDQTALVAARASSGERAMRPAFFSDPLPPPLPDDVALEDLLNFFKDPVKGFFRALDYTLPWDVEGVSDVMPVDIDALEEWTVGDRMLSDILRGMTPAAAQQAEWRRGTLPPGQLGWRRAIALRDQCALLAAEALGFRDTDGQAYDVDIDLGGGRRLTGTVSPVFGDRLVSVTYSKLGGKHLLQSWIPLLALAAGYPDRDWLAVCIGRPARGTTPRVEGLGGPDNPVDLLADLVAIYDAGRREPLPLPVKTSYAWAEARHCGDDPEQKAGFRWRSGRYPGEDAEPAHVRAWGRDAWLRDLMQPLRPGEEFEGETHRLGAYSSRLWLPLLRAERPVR
Description: as §1
The purified AddAB and RecBCD enzyme assays were performed as described in Example 1. The H. pylori AddAB, M. smegmatis AddAB and RecBCD, and M. tuberculosis AddAB enzymes were obtained from Seattle Structural Genomics Center for Infectious Disease (Seattle, Wash.).

[6] = approximate, read-out: Inhibition (approximate IC50, μM) RecBCD nuclease
[7] = experiment 1 (first value), without compound 7.6%
[8] = experiment 2 (second value), without compound 8.4%
[9] = approximate, read-out: Inhibition (approximate IC50, μM) AddAB nuclease
[10] = experiment 1 (first value), percentage of that without compound (8.7% His+ StrR per viable Hfr cell)
[11] = experiment 2 (second value), percentage of that without compound (8.9%)
[12] = read-out: Nuclease IC50, E.coli RecBCD
[13] = read-out: Nuclease IC50, H. pylori AddAB

| Compound | IC50 (E. coli RecBCD [1]; [6]) | IC50 (E. coli RecBCD [2]) | IC50 (RecBCD) | IC50 (E. coli RecBCD [1]; [12]) | IC50 (H. pylori AddAB [4]; [13]) | IC50 (M. smegmatis AddAB) | IC50 (M. smegmatis RecBCD) | other results |
| --- | --- | --- | --- | --- | --- | --- | --- | --- |
| C#CCn1/c(=N\C(=O)C2CCCCC2)sc2cc(S(N)(=O)=O)ccc21 [Compound 16] | 10 µM | 50 µM | > 100 µM |  |  |  |  | concentration range over which activity decreased from about 90% to about 10% (E. coli RecBCD [1]): about 2.5 log10; Relative recombinant frequency, E. coli Hfr recombination (footnote d: compound was 100 μM) [3, 7]: 64%; Relative recombinant frequency, E. coli Hfr recombination (footnote d: compound was 100 μM) [3, 8]: 72% |
| CC(=O)Nc1ccc2nc(NC(=O)c3ccc([N+](=O)[O-])o3)sc2c1 [Compound 10] | > 100 µM | > 500 µM | > 120 µM |  |  |  |  | IC50 (H. pylori AddAB [4]; [9]): > 100 µM; activity at 200 µM [3, 10]: 47%; activity at 200 µM [3, 11]: 51%; IC50 (H. pylori AddAB [5]): > 13 µM |
| CCn1cc(C(=O)O)c(=O)c2cc(F)c(N3CCN(C(=S)Nc4ccccc4C(F)(F)F)CC3)cc21 [Compound 51] |  |  |  | 26 µM | 79 µM |  |  | inhibition of RecBCD nuclease activity (in words) (E. coli RecBCD [1]; purified E. coli RecBCD): inhibit more strongly than norfloxacin |
| O=C(O)c1cn(C2CC2)c2cc(N3CCN(C(=S)Nc4ccc(C(F)(F)F)cc4)CC3)c(F)cc2c1=O [Compound 150] |  |  |  | 3 µM |  | 6.6 µM | 4.9 µM |  |
| CCn1cc(C(=O)O)c(=O)c2cc(F)c(N3CCN(C(=S)Nc4ccc(C(F)(F)F)cc4)CC3)cc21 [Compound 144] |  |  |  | 3.7 µM | 16 µM | 3.2 µM | 37 µM |  |
| O=C(OCC(=O)c1cccs1)c1ccc([N+](=O)[O-])o1 [Compound 13] | > 100 µM | > 500 µM | > 120 µM |  |  |  |  | IC50 (H. pylori AddAB [4]; [9]): > 100 µM; activity at 200 µM [3, 10]: 49%; activity at 200 µM [3, 11]: 63%; IC50 (H. pylori AddAB [5]): 21 µM |
| C=CCn1/c(=N\C(=O)c2ccccc2[N+](=O)[O-])sc2cc(S(C)(=O)=O)ccc21 [Compound 17] | 80 µM | 50 µM | > 100 µM |  |  |  |  | concentration range over which activity decreased from about 90% to about 10% (E. coli RecBCD [1]): about 2.5 log10; Relative recombinant frequency, E. coli Hfr recombination (footnote d: compound was 100 μM) [3, 7]: 78%; Relative recombinant frequency, E. coli Hfr recombination (footnote d: compound was 100 μM) [3, 8]: 67% |
| CCn1cc(C(=O)O)c(=O)c2cc(F)c(N3CCN(C(=S)Nc4cccc(C(F)(F)F)c4)C(C)C3)c(F)c21 (stereo not shown) [Compound 146] |  |  |  | 6.3 µM | 8.4 µM | 1.2 µM | 20 µM |  |
| O=C(O)c1cn(C2CC2)c2cc(N3CCN(C(=S)Nc4cccc(C(F)(F)F)c4)CC3)c(F)cc2c1=O [Compound 57] |  |  |  | 10 µM | 12 µM | 23 µM | 6 µM |  |
| COc1c(N2CCN(C(=S)Nc3ccccc3)C(C)C2)c(F)cc2c(=O)c(C(=O)O)cn(C3CC3)c12 (stereo not shown) [Compound 64] |  |  |  | 1.2 µM | 16 µM |  |  |  |
| CCn1cc(C(=O)O)c(=O)c2cnc(N3CCN(C(=S)Nc4ccc(C(F)(F)F)cc4)CC3)nc21 [Compound 143] |  |  |  | 4.7 µM | 6.6 µM | 7 µM | 30 µM |  |
| COc1c(N2CCN(C(=S)Nc3ccc(C(F)(F)F)cc3)C(C)C2)c(F)cc2c(=O)c(C(=O)O)cn(C3CC3)c12 (stereo not shown) [Compound 145] |  |  |  | 1.2 µM |  | 4.5 µM | 12 µM |  |
| COc1c(N2CC3CCCN(C(=S)Nc4ccc(C(F)(F)F)cc4)C3C2)c(F)cc2c(=O)c(C(=O)O)cn(C3CC3)c12 (stereo not shown) [Compound 152] |  |  |  |  |  | 1.8 µM | 5.4 µM |  |

— patent US20150126519A1, “ANTIBIOTIC COMPOUNDS AND COMPOSITIONS, AND METHODS FOR IDENTIFICATION THEREOF” (Fred Hutchinson Cancer Research Center, priority 2012, published 2015)
